Literature values in patent publication US8017153B2, “Dietary supplement composition for blood lipid health” (U.S. Nutraceuticals, LLC, priority 2006, dated 2011).

Details: Human studies

- total radioactivity excreted in the feces: 81-91%
- total radioactivity found in urine: 1.2%
Substance: [^3H]-octacosanol
